According to US8362204B2 (priority 2006, dated 2013):
“And” between values parts separate entries of the source, which are not always exact repeats. Equal values may be shown once. Positions of bridges follow the written chain, without caps; N, C: chain ends. Non-standard residues stand in square brackets, D forms with d. Residues, ends and D or L forms follow the SMILES beside them. ξ: configuration not given here. Ala(indol-2-yl) = N[C@@H](Cc1cc2ccccc2[nH]1)C(=O)O; AllylGly = C=CC[C@H](N)C(=O)O; ξP = O=C(O)C1CCCN1

Assays:
[1] = target: T1, neuronal-type nicotinic receptors (Bos taurus, UniProt Q07263+Q8SPU6); type: cell-based, Bovine
T1 construct: monolayer cultures of bovine adrenal chromaffin cells; endogenous in cells; host or cells: bovine adrenal chromaffin cells (primary monolayer cultures)

[2] = target: T1, neuronal-type nicotinic receptors; conditions: cited from earlier work

T1 sequence (Q07263 22-495): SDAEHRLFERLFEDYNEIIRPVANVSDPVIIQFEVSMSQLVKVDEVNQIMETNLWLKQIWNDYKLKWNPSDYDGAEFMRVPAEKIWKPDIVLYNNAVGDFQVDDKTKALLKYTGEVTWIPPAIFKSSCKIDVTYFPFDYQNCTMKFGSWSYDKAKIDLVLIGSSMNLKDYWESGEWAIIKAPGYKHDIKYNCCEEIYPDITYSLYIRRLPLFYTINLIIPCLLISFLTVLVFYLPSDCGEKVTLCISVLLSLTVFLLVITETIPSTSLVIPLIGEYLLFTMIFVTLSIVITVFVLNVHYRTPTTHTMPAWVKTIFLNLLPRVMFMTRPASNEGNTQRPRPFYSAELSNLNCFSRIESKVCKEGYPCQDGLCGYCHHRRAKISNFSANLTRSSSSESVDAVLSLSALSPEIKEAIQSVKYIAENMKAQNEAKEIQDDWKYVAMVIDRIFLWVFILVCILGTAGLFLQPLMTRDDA
T1 sequence (Q8SPU6 20-496): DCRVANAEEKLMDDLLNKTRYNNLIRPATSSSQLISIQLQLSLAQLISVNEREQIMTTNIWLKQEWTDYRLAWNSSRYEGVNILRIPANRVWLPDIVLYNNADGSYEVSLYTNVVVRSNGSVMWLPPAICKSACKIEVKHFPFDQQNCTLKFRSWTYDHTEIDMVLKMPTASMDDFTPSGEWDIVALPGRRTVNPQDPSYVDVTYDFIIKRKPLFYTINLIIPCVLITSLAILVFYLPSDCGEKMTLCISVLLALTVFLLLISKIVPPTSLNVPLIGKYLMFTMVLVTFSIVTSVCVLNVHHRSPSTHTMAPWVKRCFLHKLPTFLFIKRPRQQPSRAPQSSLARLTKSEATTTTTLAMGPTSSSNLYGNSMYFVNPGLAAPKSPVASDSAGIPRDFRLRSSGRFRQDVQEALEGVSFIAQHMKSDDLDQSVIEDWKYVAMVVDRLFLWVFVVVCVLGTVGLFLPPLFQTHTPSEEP

| Compound | Adrenaline Release, 1st-4th (individual wells) [1] | Adrenaline Release, % control [1] | Adrenaline Release, mean [1] | Noradrenaline Release, 1st-4th (individual wells) [1] | Noradrenaline Release, % control [1] | Noradrenaline Release, % inhibition [1] | Noradrenaline Release, mean [1] | noradrenaline released, basal release (0.72%) subtracted [1] | effect on nicotine-stimulated release of adrenaline and noradrenaline [2] |
| --- | --- | --- | --- | --- | --- | --- | --- | --- | --- |
| C[C@@H]1NC(=O)[C@@H]2CSSC[C@H](NC(=O)CN)C(=O)N[C@@H](CC=CC[C@@H](C(N)=O)NC(=O)[C@H](CCCNC(=N)N)NC(=O)[C@H](Cc3cc4ccccc4[nH]3)NC1=O)C(=O)N[C@@H](CO)C(=O)N[C@@H](CC(=O)O)C(=O)N1CCCC1C(=O)N[C@@H](CCCNC(=N)N)C(=O)N2 (stereo partly drawn) [compound 119, [2,8]-Cystino-[3,12]-Dicarba Conotoxin ImI: NH2-Gly-Cys-c [Hag-Ser-Asp-Pro-Arg-Cys-Ala-Trp-Arg-Hag]-NH2] (H-GC[AllylGly]SD[ξP]RCA[Ala(indol-2-yl)]R[AllylGly]-NH2; disulfide 2-8; staple 3-12) | 3.31% and 3.67% and 4.14% and 3.98% and 2.32% and 2.95% and 2.76% and 3.02% | 83.420% and 58.888% | 3.77% and 2.76% | 4.89% and 5.75% and 5.73% (2×) and 3.22% and 4.58% and 3.99% and 4.81% | 78.400% and 55.971% | 21.600% | 5.52% and 4.15% | 3.43% |  |
| C[C@@H]1NC(=O)[C@@H]2CCCC[C@H](NC(=O)CN)C(=O)N[C@@H](CSSC[C@@H](C(N)=O)NC(=O)[C@H](CCCNC(=N)N)NC(=O)[C@H](Cc3cc4ccccc4[nH]3)NC1=O)C(=O)N[C@@H](CO)C(=O)N[C@@H](CC(=O)O)C(=O)N1CCCC1C(=O)N[C@@H](CCCNC(=N)N)C(=O)N2 (stereo partly drawn) [compound 118, [2,8]-Dicarba-[3,12]-Cystino Conotoxin ImI: NH2-Gly-c[Hag-Cys-Ser-Asp-Pro-Arg-Hag]-Ala-Trp-Arg-Cys)-NH2] | 2.94% and 4.40% and 4.46% and 4.09% and 2.55% and 3.63% and 2.62% and 3.31% | 88.260% and 65.306% | 3.97% and 3.03% | 4.52% and 6.29% and 7.00% and 7.34% and 4.19% and 5.86% and 4.32% and 5.51% | 90.859% and 69.384% |  | 6.29% and 4.97% |  |  |
| C[C@@H]1NC(=O)[C@@H]2CSSC[C@H](NC(=O)CN)C(=O)N[C@@H](CSSC[C@@H](C(N)=O)NC(=O)[C@H](CCCNC(=N)N)NC(=O)[C@H](Cc3cc4ccccc4[nH]3)NC1=O)C(=O)N[C@@H](CO)C(=O)N[C@@H](CC(=O)O)C(=O)N1CCCC1C(=O)N[C@@H](CCCNC(=N)N)C(=O)N2 (stereo partly drawn) [native-Ctx ImI] (H-GCCSD[ξP]RCA[Ala(indol-2-yl)]RC-NH2; disulfide 2-8, 3-12) |  |  |  |  |  |  |  |  | inhibit |
